Test results from the supplement of paper PMC10307832.

Columns and labels:
Test in all cases: relative viability (nuclei count vs DMSO), 5 days (fraction); higher = more cells survive
201T = tested on: 201T
In short: (§1)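 Values are medians from duplicate plates. Each reflects relative viability, defined as the nuclei count of treated wells over that of vehicle wells. Lung cancer cell lines in 1536-well plates were pin-tool dosed one day after seeding with one drug alone or with a fixed anchor-drug dose plus five library-drug doses (not always all listed) in √10 steps, then fixed, stained and imaged at 4× after 5 days.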

A-427 = tested on: A-427
In short: as §1

ABC-1 = tested on: ABC-1
In short: as §1

BEN = tested on: BEN
In short: as §1

H3255 = tested on: H3255
In short: as §1

LC-2-ad = tested on: LC-2-ad
In short: as §1

LCLC-97TM1 = tested on: LCLC-97TM1
In short: as §1

NCI-H1650 = tested on: NCI-H1650
In short: as §1

NCI-H1651 = tested on: NCI-H1651
In short: as §1

NCI-H1792 = tested on: NCI-H1792
In short: as §1

NCI-H1915 = tested on: NCI-H1915
In short: as §1

NCI-H1944 = tested on: NCI-H1944
In short: as §1

NCI-H2023 = tested on: NCI-H2023
In short: as §1

NCI-H2087 = tested on: NCI-H2087
In short: as §1

NCI-H441 = tested on: NCI-H441
In short: as §1

NCI-H460 = tested on: NCI-H460
In short: as §1

NCI-H520 = tested on: NCI-H520
In short: as §1

NCI-H596 = tested on: NCI-H596
In short: as §1

NCI-H650 = tested on: NCI-H650
In short: as §1

NCI-H661 = tested on: NCI-H661
In short: as §1

NCI-H727 = tested on: NCI-H727
In short: as §1

PC-3 [JPC-3] = tested on: PC-3 [JPC-3]
In short: as §1

## CC1(C)CCC(c2ccc(Cl)cc2)=C(CN2CCN(c3ccc(C(=O)NS(=O)(=O)c4ccc(N[C@H](CCN5CCOCC5)CSc5ccccc5)c(S(=O)(=O)C(F)(F)F)c4)cc3)CC2)C1 [Navitoclax] + Nc1ncn([C@H]2C[C@H](O)[C@@H](CO)O2)c(=O)n1 [Decitabine] (partner 2 µM)
201T; first compound 0.005 µM
  relative viability: 0.891
201T; first compound 0.01581 µM
  relative viability: 0.869
201T; first compound 0.05 µM
  relative viability: 0.77
201T; first compound 0.1581 µM
  relative viability: 0.824
201T; first compound 0.5 µM
  relative viability: 0.859
A-427; first compound 0.005 µM
  relative viability: 0.607
A-427; first compound 0.01581 µM
  relative viability: 0.534
A-427; first compound 0.05 µM
  relative viability: 0.517
A-427; first compound 0.1581 µM
  relative viability: 0.521
A-427; first compound 0.5 µM
  relative viability: 0.466
ABC-1; first compound 0.005 µM
  relative viability: 0.889
ABC-1; first compound 0.01581 µM
  relative viability: 1.21
ABC-1; first compound 0.05 µM
  relative viability: 1.02
ABC-1; first compound 0.1581 µM
  relative viability: 0.986
ABC-1; first compound 0.5 µM
  relative viability: 1
BEN; first compound 0.005 µM
  relative viability: 0.784
BEN; first compound 0.01581 µM
  relative viability: 0.803
BEN; first compound 0.05 µM
  relative viability: 0.734
BEN; first compound 0.1581 µM
  relative viability: 0.712
BEN; first compound 0.5 µM
  relative viability: 0.443
H3255; first compound 0.005 µM
  relative viability: 0.503
H3255; first compound 0.01581 µM
  relative viability: 0.668
H3255; first compound 0.05 µM
  relative viability: 0.567
H3255; first compound 0.1581 µM
  relative viability: 0.596
H3255; first compound 0.5 µM
  relative viability: 0.519
LC-2-ad; first compound 0.005 µM
  relative viability: 0.793
LC-2-ad; first compound 0.01581 µM
  relative viability: 0.72
LC-2-ad; first compound 0.05 µM
  relative viability: 0.673
LC-2-ad; first compound 0.1581 µM
  relative viability: 0.701
LC-2-ad; first compound 0.5 µM
  relative viability: 0.774
LCLC-97TM1; first compound 0.005 µM
  relative viability: 0.229
LCLC-97TM1; first compound 0.01581 µM
  relative viability: 0.268
LCLC-97TM1; first compound 0.05 µM
  relative viability: 0.224
LCLC-97TM1; first compound 0.1581 µM
  relative viability: 0.217
LCLC-97TM1; first compound 0.5 µM
  relative viability: 0.271
NCI-H1650; first compound 0.005 µM
  relative viability: 0.43
NCI-H1650; first compound 0.01581 µM
  relative viability: 0.424
NCI-H1650; first compound 0.05 µM
  relative viability: 0.399
NCI-H1650; first compound 0.1581 µM
  relative viability: 0.364
NCI-H1650; first compound 0.5 µM
  relative viability: 0.334
NCI-H1651; first compound 0.005 µM
  relative viability: 0.797
NCI-H1651; first compound 0.01581 µM
  relative viability: 0.591
NCI-H1651; first compound 0.05 µM
  relative viability: 0.42
NCI-H1651; first compound 0.1581 µM
  relative viability: 0.628
NCI-H1651; first compound 0.5 µM
  relative viability: 0.644
NCI-H1792; first compound 0.005 µM
  relative viability: 0.488
NCI-H1792; first compound 0.01581 µM
  relative viability: 0.644
NCI-H1792; first compound 0.1581 µM
  relative viability: 0.525
NCI-H1792; first compound 0.5 µM
  relative viability: 0.447
NCI-H1915; first compound 0.005 µM
  relative viability: 0.263
NCI-H1915; first compound 0.01581 µM
  relative viability: 0.242
NCI-H1915; first compound 0.05 µM
  relative viability: 0.274
NCI-H1915; first compound 0.1581 µM
  relative viability: 0.247
NCI-H1915; first compound 0.5 µM
  relative viability: 0.25
NCI-H1944; first compound 0.005 µM
  relative viability: 0.466
NCI-H1944; first compound 0.01581 µM
  relative viability: 0.455
NCI-H1944; first compound 0.1581 µM
  relative viability: 0.384
NCI-H1944; first compound 0.5 µM
  relative viability: 0.396
NCI-H2023; first compound 0.005 µM
  relative viability: 0.22
NCI-H2023; first compound 0.01581 µM
  relative viability: 0.248
NCI-H2023; first compound 0.05 µM
  relative viability: 0.188
NCI-H2023; first compound 0.1581 µM
  relative viability: 0.191
NCI-H2023; first compound 0.5 µM
  relative viability: 0.229
NCI-H2087; first compound 0.005 µM
  relative viability: 0.277
NCI-H2087; first compound 0.01581 µM
  relative viability: 0.314
NCI-H2087; first compound 0.1581 µM
  relative viability: 0.231
NCI-H2087; first compound 0.5 µM
  relative viability: 0.266
NCI-H441; first compound 0.005 µM
  relative viability: 0.255
NCI-H441; first compound 0.01581 µM
  relative viability: 0.217
NCI-H441; first compound 0.05 µM
  relative viability: 0.207
NCI-H441; first compound 0.1581 µM
  relative viability: 0.2
NCI-H441; first compound 0.5 µM
  relative viability: 0.237
NCI-H460; first compound 0.005 µM
  relative viability: 0.481
NCI-H460; first compound 0.01581 µM
  relative viability: 0.523
NCI-H460; first compound 0.05 µM
  relative viability: 0.234
NCI-H460; first compound 0.1581 µM
  relative viability: 0.411
NCI-H460; first compound 0.5 µM
  relative viability: 0.444
NCI-H520; first compound 0.005 µM
  relative viability: 0.432
NCI-H520; first compound 0.01581 µM
  relative viability: 0.48
NCI-H520; first compound 0.05 µM
  relative viability: 0.423
NCI-H520; first compound 0.1581 µM
  relative viability: 0.487
NCI-H520; first compound 0.5 µM
  relative viability: 0.489
NCI-H596; first compound 0.005 µM
  relative viability: 1.04
NCI-H596; first compound 0.01581 µM
  relative viability: 0.951
NCI-H596; first compound 0.05 µM
  relative viability: 0.786
NCI-H596; first compound 0.1581 µM
  relative viability: 0.998
NCI-H596; first compound 0.5 µM
  relative viability: 1.01
NCI-H650; first compound 0.005 µM
  relative viability: 0.331
NCI-H650; first compound 0.01581 µM
  relative viability: 0.298
NCI-H650; first compound 0.05 µM
  relative viability: 0.32
NCI-H650; first compound 0.1581 µM
  relative viability: 0.336
NCI-H650; first compound 0.5 µM
  relative viability: 0.264
NCI-H661; first compound 0.005 µM
  relative viability: 0.556
NCI-H661; first compound 0.01581 µM
  relative viability: 0.595
NCI-H661; first compound 0.05 µM
  relative viability: 0.545
NCI-H661; first compound 0.1581 µM
  relative viability: 0.547
NCI-H661; first compound 0.5 µM
  relative viability: 0.567
NCI-H727; first compound 0.005 µM
  relative viability: 0.903
NCI-H727; first compound 0.01581 µM
  relative viability: 1.08
NCI-H727; first compound 0.05 µM
  relative viability: 0.839
NCI-H727; first compound 0.1581 µM
  relative viability: 0.786
NCI-H727; first compound 0.5 µM
  relative viability: 1.02
PC-3 [JPC-3]; first compound 0.005 µM
  relative viability: 0.922
PC-3 [JPC-3]; first compound 0.01581 µM
  relative viability: 0.876
PC-3 [JPC-3]; first compound 0.05 µM
  relative viability: 0.912
PC-3 [JPC-3]; first compound 0.1581 µM
  relative viability: 0.758
PC-3 [JPC-3]; first compound 0.5 µM
  relative viability: 0.653
